Measurements reported in PubChem BioAssay (NCI).
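Cultured in 96-well plates, cells were exposed to test compound for 48 hours across five concentrations. GI50 = concentration required for 50% inhibition of growth. The concentration for full growth arrest is given as TGI.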

How the values were obtained:
Assay in all cases: inhibition of tumour cell growth, NCI panel, 48 h
NCI/ADR-RES ovarian = system: NCI/ADR-RES ovarian
PC-3 prostate = system: PC-3 prostate
HS 578T breast = system: HS 578T breast
BT-549 breast = system: BT-549 breast

SMILES | TGI (NCI/ADR-RES ovarian) | TGI (PC-3 prostate) | TGI (HS 578T breast) | TGI (BT-549 breast) | GI50 (NCI/ADR-RES ovarian) | GI50 (PC-3 prostate) | GI50 (HS 578T breast) | GI50 (BT-549 breast)
O=C(Nc1ccc2c(c1)oc(=O)c1ccccc12)C(Cl)Cl | > 100 µM | > 100 µM | > 100 µM | > 100 µM | – | – | – | –
C[C@H](CSC(=O)c1ccccc1)C(=O)N1c2ccccc2C[C@H]1C(=O)O | > 100 µM | > 100 µM | > 100 µM | > 100 µM | – | – | – | –
Oc1cc(Cl)ccc1Oc1ccc(Cl)cc1Cl | 7.93 µM | 8.43 µM | 42.6 µM | 5.95 µM | 2.81 µM | 2.78 µM | 4.54 µM | 2.62 µM
Fc1ccc(Nc2nccc(-c3c(-c4ccc(C(F)(F)F)cc4)nn4ncccc34)n2)cc1F | > 25 µM | > 25 µM | > 25 µM | > 25 µM | > 25 µM | > 25 µM | > 25 µM | > 25 µM
Fc1ccc(Nc2nc(NCCNc3ccnc4cc(Cl)ccc34)nc(N3CCOCC3)n2)cc1 | 26.5 µM | 18.5 µM | 28.9 µM | 22 µM | 9.36 µM | 4.87 µM | 7.32 µM | 8.67 µM
CCN1C(=O)N(CC)C2C1NN=c1s/c(=C3\C(=O)N(C)c4ccccc43)c(=O)n12 (stereo not drawn) | 38.7 µM | > 100 µM | > 39.9 µM | 37.9 µM | 0.729 µM | 1.14 µM | 0.542 µM | 1.39 µM
NCc1ccc(-n2c(-c3nonc3N)nc3cnccc32)cc1 | > 25 µM | > 25 µM | > 25 µM | > 25 µM | > 25 µM | > 19.3 µM | 0.674 µM | 0.964 µM
C=C(C)[C@@H]1CC[C@@]2(C)[C@H]1[C@H]1CCC3[C@@]4(C)CC[C@H](O)C(C)(C)[C@@H]4CC[C@@]3(C)[C@]1(C)C[C@@H]2O (stereo partly drawn) | > 100 µM | > 100 µM | – | > 100 µM | – | – | – | –
CC(C)(Br)C(=O)/C=C/c1ccccc1 | > 75.5 µM | 33.7 µM | > 60.3 µM | 3.76 µM | – | – | – | –
CCOC(=O)N1CCN(S(=O)(=O)c2oc(-c3ccc(Cl)cc3)nc2C#N)CC1 | 47.6 µM | 5.77 µM | 23.8 µM | 5.6 µM | 12.2 µM | 2.24 µM | 4.2 µM | 2.22 µM
Cc1ncc([N+](=O)[O-])n1CCNC(=O)CCCn1cnc([N+](=O)[O-])n1 | > 100 µM | > 100 µM | > 100 µM | – | – | – | – | –
CC1=CC(=O)C(C(C)=Nc2ccccc2Cl)C(=O)O1 (stereo not drawn) | > 100 µM | > 100 µM | > 100 µM | – | > 100 µM | > 100 µM | > 100 µM | –
COc1ccc(/C=C2\CCCC3=C2NC(C)=NC3c2ccc(OC)c(OC)c2)cc1OC (stereo not drawn) | > 100 µM | > 100 µM | > 100 µM | > 100 µM | 15.2 µM | 37.4 µM | 39.1 µM | 23.7 µM
COc1cnc2c(c1)C(=O)c1c-2n(CCCN2CCCC2)c(=O)c2cc(Cl)ccc12 | 8.86 µM | 9.48 µM | 17.9 µM | 12.9 µM | 0.222 µM | 0.859 µM | 6.87 µM | 3.8 µM
Nc1nc(OCc2ccccc2)nc2[nH]ncc12 | 42.4 µM | 39.9 µM | 38.5 µM | 54.8 µM | 17.6 µM | 16.8 µM | 17.5 µM | 23.2 µM
COC(=O)[C@@H]1CCCN1C(=O)[C@@H]1CCCN1C(=O)[C@@H](Cc1c[nH]c2ccccc12)NC(=S)Nc1cc(C(F)(F)F)cc(C(F)(F)F)c1 | > 100 µM | 24.9 µM | > 100 µM | 28.6 µM | > 100 µM | 2.95 µM | 7.81 µM | 4.75 µM
CS(=O)(=O)Nc1cc(-c2ccc3ncnc(Nc4ccc5c(cnn5Cc5ccc(F)cc5)c4)c3c2)cnc1Cl | > 100 µM | 8.68 µM | 2.04 µM | 6.47 µM | 17 µM | 1.8 µM | 0.246 µM | 0.957 µM
COc1ccc2c(c1)nc(N)c1c3cccnc3cn21 | 50.2 µM | 27.7 µM | > 49.6 µM | 28.9 µM | 0.0382 µM | 0.0412 µM | 0.0951 µM | 0.447 µM
O=[N+]([O-])c1ccc(CS(=O)Cc2ccccc2)cc1 (stereo not drawn) | > 100 µM | > 100 µM | > 100 µM | > 100 µM | – | – | – | –
C/C1=C\CC[C@@](C)(O)[C@@H]2CC3[C@@H](OC(=O)C34CC4)[C@@H](O2)[C@H](C)CCC1 (stereo partly drawn) | 34 µM | 44.6 µM | – | – | 17 µM | 20.1 µM | – | –
